Earlier results on one compound are cited in patent publication US7589170B1, “Synthesis of cyclic peptides” (priority 1998, dated 2009).

For this data set the following is noted: as originally found for the isolate from Stylotella aurantium; cited from earlier work.

As to `CCC(C)[C@@H]1NC(=O)[C@H](C)NC(=O)C(CC(C)C)NC(=O)[C@H](CO)NC(=O)C(CC(N)=O)NC(=O)[C@H](Cc2ccccc2)NC(=O)[C@@H]2CCCN2C1=O` (stereo in doubt) [stylostatin, Cyclo-(Pro-Phe-Asn-Ser-Leu-Ala-Ile)], the cytotoxicity result is “highly cytotoxic”.
